Data taken from ChEMBL document CHEMBL1201862, “PubChem BioAssay data set” (2004).
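In this assay, cells in 96-well plates receive the compound at five concentrations for 48 hours. Endpoints are linearly interpolated between the surrounding concentrations. GI50 is the concentration that inhibits growth by half.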 Active and inactive are the calls of the source. Cut-off read from the data, not from the text of the source: active = GI50 up to about 1.1 µM and inactive = higher.

How the values were obtained:
Experiment in all cases: NCI-60 cell line screen, 48 h
A549 = system: A549
ACHN = system: ACHN
DU-145 = system: DU-145
EKVX = system: EKVX
HCC 2998 = system: HCC 2998
HCT-116 = system: HCT-116
HOP-62 = system: HOP-62
Hs-578T = system: Hs-578T
K562 = system: K562
LOX IMVI = system: LOX IMVI
MDA-MB-231 = system: MDA-MB-231
Malme-3M = system: Malme-3M
PC-3 = system: PC-3
SF-268 = system: SF-268
SK-MEL-28 = system: SK-MEL-28
U-251 = system: U-251
UACC-257 = system: UACC-257
NCI-H522 = system: NCI-H522
RXF 393 = system: RXF 393
SNB-19 = system: SNB-19

Row | SMILES | GI50 (A549) | GI50 (ACHN) | GI50 (DU-145) | GI50 (EKVX) | GI50 (HCC 2998) | GI50 (HCT-116) | GI50 (HOP-62) | GI50 (Hs-578T) | GI50 (K562) | GI50 (LOX IMVI) | GI50 (MDA-MB-231) | GI50 (Malme-3M) | GI50 (PC-3) | GI50 (SF-268) | GI50 (SK-MEL-28) | GI50 (U-251) | GI50 (UACC-257) | GI50 (NCI-H522) | GI50 (RXF 393) | GI50 (SNB-19)
1 | c1ccc2c(c1)c1c(n2CCOCCN2CCCCC2)CCCC1 | 15.1 µM (inactive) | 14.2 µM (inactive) | 17.1 µM (inactive) | 16.9 µM (inactive) | 11.5 µM (inactive) | 12.5 µM (inactive) | 15.1 µM (inactive) | 14.5 µM (inactive) | 6.18 µM (inactive) | 13.3 µM (inactive) | 11.8 µM (inactive) | 13.1 µM (inactive) | 9.04 µM (inactive) | 16.9 µM (inactive) | 24.6 µM (inactive) | 16.9 µM (inactive) | > 10 µM (inactive) |  |  | 
2 | C[C@@H]1[C@@H](c2ccccc2)O[B-](c2ccccc2)(c2ccccc2)N1C | 58.6 µM (inactive) | 33.1 µM (inactive) | 63.1 µM (inactive) | 97.7 µM (inactive) |  | 32.9 µM (inactive) | > 100 µM (inactive) | 33.4 µM (inactive) | 36.4 µM (inactive) | 61.9 µM (inactive) | 40.7 µM (inactive) | 29.5 µM (inactive) | 17.5 µM (inactive) | 64 µM (inactive) | 52.1 µM (inactive) | > 100 µM (inactive) | 50.6 µM (inactive) | 34.5 µM (inactive) | 37.5 µM (inactive) | > 100 µM (inactive)
3 | COc1ccc(CNC(C)C(=O)O)cc1 (centres undefined) | > 100 µM (inactive) | > 100 µM (inactive) | > 100 µM (inactive) | > 100 µM (inactive) |  | > 100 µM (inactive) | > 100 µM (inactive) | > 100 µM (inactive) | > 100 µM (inactive) | > 100 µM (inactive) | > 100 µM (inactive) | > 100 µM (inactive) | > 100 µM (inactive) | > 100 µM (inactive) | > 100 µM (inactive) | > 100 µM (inactive) | > 100 µM (inactive) | > 100 µM (inactive) | > 100 µM (inactive) | > 100 µM (inactive)
4 | Cc1cc(NC(=O)NC(=O)c2ccccc2NC(=O)CN)ccc1Oc1ncc(Br)cn1 | 0.879 µM (active) | 9.44 µM (inactive) | 0.402 µM (active) | 1.52 µM (inactive) | 5.21 µM (inactive) | 0.33 µM (active) | 0.215 µM (active) | 0.0308 µM (active) | 0.419 µM (active) | 0.971 µM (active) | 0.297 µM (active) | 0.0632 µM (active) | 0.217 µM (active) | 1.55 µM (inactive) | 0.859 µM (active) | 0.743 µM (active) | 3.52 µM (inactive) |  | 0.0439 µM (active) | 0.929 µM (active)
5 | C=C1CN(C2=NCCO2)C1 | > 100 µM (inactive) | > 100 µM (inactive) | > 100 µM (inactive) | > 100 µM (inactive) | > 100 µM (inactive) | > 100 µM (inactive) | > 100 µM (inactive) | > 100 µM (inactive) | > 100 µM (inactive) | > 100 µM (inactive) | > 100 µM (inactive) | > 100 µM (inactive) | > 100 µM (inactive) | > 100 µM (inactive) | > 100 µM (inactive) |  | > 100 µM (inactive) |  | > 100 µM (inactive) | > 100 µM (inactive)
6 | CC(C)(CCC(C)(C)c1ccccc1)c1ccccc1 | 28.8 µM (inactive) | 17.8 µM (inactive) | 18.4 µM (inactive) | 17.7 µM (inactive) |  | 14.7 µM (inactive) | 17.4 µM (inactive) | 22.1 µM (inactive) | 21.8 µM (inactive) | 17.5 µM (inactive) | 16.7 µM (inactive) | 16 µM (inactive) | 30.8 µM (inactive) | 17.3 µM (inactive) | 20 µM (inactive) | 16.7 µM (inactive) | 14.3 µM (inactive) | 15.7 µM (inactive) | 12.9 µM (inactive) | 18.3 µM (inactive)
7 | Cc1ccc([Se](=C(C(=O)c2ccccc2)C(=O)c2ccccc2)c2ccc(C)cc2)cc1 | 25.3 µM (inactive) | 24.5 µM (inactive) | 38.7 µM (inactive) |  |  | 34.4 µM (inactive) | 48 µM (inactive) | 22.8 µM (inactive) | 28.8 µM (inactive) |  | 15.8 µM (inactive) | 18.4 µM (inactive) | 23.3 µM (inactive) | 35.3 µM (inactive) | 31 µM (inactive) | 20.6 µM (inactive) | 17.5 µM (inactive) | 22.1 µM (inactive) | 68.1 µM (inactive) | 27.4 µM (inactive)
8 | CCOC(=O)c1cc(=O)c2ccnc3c2n1CCS3 | 69.8 µM (inactive) | > 100 µM (inactive) | > 100 µM (inactive) | > 100 µM (inactive) |  | > 100 µM (inactive) | 48.5 µM (inactive) | > 100 µM (inactive) |  | 57.4 µM (inactive) | > 100 µM (inactive) |  | > 100 µM (inactive) | > 100 µM (inactive) | > 100 µM (inactive) | 43.9 µM (inactive) | 51.6 µM (inactive) | 22.7 µM (inactive) |  | 50.2 µM (inactive)
9 | Cn1c(N)nc2c(nc(OCc3ccccc3)n2C2OC(CO)C(O)C2O)c1=O (centres undefined) | > 100 µM (inactive) | > 100 µM (inactive) | > 100 µM (inactive) | > 100 µM (inactive) |  | > 100 µM (inactive) | > 100 µM (inactive) | > 100 µM (inactive) | > 100 µM (inactive) | > 100 µM (inactive) | > 100 µM (inactive) | > 100 µM (inactive) | > 100 µM (inactive) | > 100 µM (inactive) | > 100 µM (inactive) | > 100 µM (inactive) | > 100 µM (inactive) | > 100 µM (inactive) | > 100 µM (inactive) | > 100 µM (inactive)
10 | CNC(=O)c1ccccc1-[s+]1c2ccccc2c(=O)n1C (centres undefined) | > 100 µM (inactive) | > 100 µM (inactive) | > 100 µM (inactive) | > 100 µM (inactive) |  | > 100 µM (inactive) | > 100 µM (inactive) | > 100 µM (inactive) | > 100 µM (inactive) | > 100 µM (inactive) | > 100 µM (inactive) | > 100 µM (inactive) | > 100 µM (inactive) | > 100 µM (inactive) | > 100 µM (inactive) | > 100 µM (inactive) | > 100 µM (inactive) | > 100 µM (inactive) | > 100 µM (inactive) | > 100 µM (inactive)
11 | CCOC(=O)c1sc2nc(SC)nc3c2c1NCN3C1CC1 | > 100 µM (inactive) | > 100 µM (inactive) | > 100 µM (inactive) |  | > 100 µM (inactive) | > 100 µM (inactive) | > 100 µM (inactive) | 74.5 µM (inactive) |  | > 100 µM (inactive) | > 100 µM (inactive) | > 100 µM (inactive) | > 100 µM (inactive) | > 100 µM (inactive) | > 100 µM (inactive) | > 100 µM (inactive) | > 100 µM (inactive) |  | > 100 µM (inactive) | > 100 µM (inactive)
